ChEMBL document CHEMBL4665827, “Discovery of Small-Molecule Inhibitors of Receptor Activator of Nuclear Factor-κB Ligand with a Superior Therapeutic Index” (J Med Chem, 2020)
Active and inactive are the calls of the source. The rule behind the calls is not given here.

Columns and labels:
[1] = biological target: T1, Tumor necrosis factor ligand superfamily member 11 (Homo sapiens) (UniProt O14788); test: (§1) Inhibition of RANKL (unknown origin) in RANKL cultured mouse RAW264.7 cells assessed as reduction in RANKL/RANK-interaction mediated NFATc1 expression by measuring NFATc1 protein expression at 10 uM preincubated for 1 hr followed by cell culture addition and measured after 2 days by Western blot analysis relative to positive control (reference value: 1); type: cell-based; conditions: time 49.0 hrs
T1 sequence (whole entry): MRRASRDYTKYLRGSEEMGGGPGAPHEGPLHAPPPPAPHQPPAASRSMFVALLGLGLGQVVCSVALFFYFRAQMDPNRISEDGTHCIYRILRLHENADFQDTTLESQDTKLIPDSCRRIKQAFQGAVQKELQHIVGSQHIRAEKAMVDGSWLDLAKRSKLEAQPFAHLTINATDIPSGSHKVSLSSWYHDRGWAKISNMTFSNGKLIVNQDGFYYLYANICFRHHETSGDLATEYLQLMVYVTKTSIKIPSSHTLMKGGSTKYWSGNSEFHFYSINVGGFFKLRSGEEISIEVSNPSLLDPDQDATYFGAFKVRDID

[2] = biological target: T1, Tumor necrosis factor ligand superfamily member 11 (Homo sapiens); test: as §1, with “cFOS” for “NFATc1”; type: cell-based; conditions: time 49.0 hrs
[3] = biological target: T1, Tumor necrosis factor ligand superfamily member 11 (Homo sapiens); test: as §1, with “cFOS” for “NFATc1”, “5” for “10”; type: cell-based; conditions: time 49.0 hrs
[4] = Therapeutic index, ratio of LC50 for mouse bone marrow cells to IC50 for Inhibition of human RANKL-induced osteoclastogenesis in RANKL cultured mouse bone marrow cells; type: toxicity; conditions: read-out: Ratio LC50/IC50
[5] = biological target: T1, Tumor necrosis factor ligand superfamily member 11 (Homo sapiens); test: as §1, with “5” for “10”; type: cell-based; conditions: time 49.0 hrs
[6] = biological target: T1, Tumor necrosis factor ligand superfamily member 11 (Homo sapiens); test: as §1, with “cFOS” for “NFATc1”, “2” for “10”; type: cell-based; conditions: time 49.0 hrs
[7] = Cytotoxicity against mouse BMMC assessed as reduction in cell viability measured after 48 hrs by MTT assay; type: cell-based; conditions: mouse BMMC (bone marrow cells), read-out: LC50
[8] = biological target: T1, Tumor necrosis factor ligand superfamily member 11 (Homo sapiens); test: as §1, with “2” for “10”; type: cell-based; conditions: time 49.0 hrs
[9] = biological target: T2, Tumor necrosis factor ligand superfamily member 11 (Homo sapiens, UniProt O14788); test: Binding affinity to GST-fused human RANKL extracellular domain (Lys159 to Asp317 residues) expressed in Escherichia coli BL21(DE3) pLysS by fluorescence spectrophotometric assay
T2 sequence (O14788 whole entry): T1 sequence (whole entry)

[10] = biological target: T1, Tumor necrosis factor ligand superfamily member 11 (Homo sapiens); test: Inhibition of human RANKL-induced osteoclastogenesis in RANKL cultured mouse bone marrow cells assessed as reduction in RANKL/M-CSF-induced TRAP activity at 5 uM preincubated with RANKL for 1 hr followed by cell addition and subsequent media replenishment every 48 hrs for 4 days; type: cell-based; conditions: time 4.0 day
BMMC = test: Cytotoxicity against mouse BMMC assessed as reduction in cell viability at 5 uM measured after 48 hrs by MTT assay; type: cell-based
[11] = biological target: T1, Tumor necrosis factor ligand superfamily member 11 (Homo sapiens); test: Inhibition of human RANKL-induced osteoclastogenesis in RANKL cultured mouse bone marrow cells assessed as reduction in RANKL/M-CSF-induced TRAP activity preincubated with RANKL for 1 hr followed by cell addition and subsequent media replenishment every 48 hrs for 4 days; type: cell-based; conditions: time 4.0 day

Compound	CC50 at 48 h [7] [µM]	Kd ([9]; read-out: Kd) [µM]	inhibition [10]	Kd [9]	further results
O=C(c1cn(S(=O)(=O)c2cccc([N+](=O)[O-])c2)c2ccccc12)N1CCN(S(=O)(=O)c2ccccc2)CC1	123				fold change (FC) [1]: 0.34; fold change (FC) [2]: 0.56; fold change (FC) [3]: 0.63; selectivity ratio [4]: 84.8; fold change (FC) [5]: 0.57; fold change (FC) [6]: 0.91; fold change (FC) [8]: 0.82
O=C(c1ccccc1F)N1CCN(C(=O)c2c[nH]c3ccc([N+](=O)[O-])cc23)CC1	> 20	12.8	Active		
CN(CCN(C)C(=O)c1cn(S(=O)(=O)c2ccccc2)c2ccccc12)C(=O)c1ccccc1F	> 20	12.5	Active		
Nc1cccc(-n2cc(C(=O)N3CCN(C(=O)c4coc5ccccc5c4=O)CC3)c3ccccc32)c1		19.1	inactive		
CN(CCN(C)C(=O)c1cn(S(=O)(=O)c2cccc(N)c2)c2ccccc12)C(=O)c1coc2ccccc2c1=O		22.3	inactive		
O=C(c1ccc2ccccc2c1)N1CCN(C(=O)c2cn(S(=O)(=O)c3ccccc3)c3ccccc23)CC1			inactive	Not Active	
O=C(NCCCCNC(=O)c1cn(S(=O)(=O)c2ccccc2)c2ccccc12)c1ccc2ccccc2c1		18.4	inactive		
CN(CCN(C)C(=O)c1cn(-c2cccc(N)c2)c2ccccc12)C(=O)c1coc2ccccc2c1=O		17.6	inactive		
Nc1cccc(S(=O)(=O)n2cc(C(=O)N3CCN(C(=O)c4coc5ccccc5c4=O)CC3)c3ccccc32)c1			inactive	Not Active	
N#Cc1ccc(S(=O)(=O)N2CCN(C(=O)c3cn(S(=O)(=O)c4cccc([N+](=O)[O-])c4)c4ccccc34)CC2)cc1	52.6				selectivity ratio [4]: 10.4
O=C(c1ccccc1)N1CCN(C(=O)c2cn(-c3cccc(C(F)(F)F)c3)c3ccccc23)CC1			inactive	Not Active	
CN(CCN(C)S(=O)(=O)c1ccccc1)C(=O)c1cn(S(=O)(=O)c2cccc([N+](=O)[O-])c2)c2ccccc12	> 300				selectivity ratio [4]: > 112
CN(CCN(C)C(=O)n1ccnc1)C(=O)c1cn(S(=O)(=O)c2ccccc2)c2ccccc12			inactive	Not Active	
Cc1ccc2occ(CN(C)CCN(C)Cc3cn(S(=O)(=O)c4ccccc4)c4ccccc34)c(=O)c2c1		6.62			Activity (BMMC): Toxic
O=C(c1ccc2ccccc2c1)N1CCN(Cc2cn(-c3cccc(C(F)(F)F)c3)c3ccccc23)CC1			inactive	Not Active	
Nc1cccc(-n2cc(C(=O)N3CCN(C(=O)c4coc5ccccc5c4=O)CC3)c3cc(N)ccc32)c1	> 20	9.31	Active		
O=C(c1cn(-c2cccc(C(F)(F)F)c2)c2ccccc12)N1CCN(C(=O)n2ccnc2)CC1	< 20	5.34	Active		
O=C(c1coc2ccccc2c1=O)N1CCN(C(=O)c2cn(S(=O)(=O)c3cccc([N+](=O)[O-])c3)c3ccccc23)CC1	< 20		100%	Not Active	
O=C(c1coc2ccccc2c1=O)N1CCN(Cc2cn(-c3cccc(C(F)(F)F)c3)c3ccc([N+](=O)[O-])cc23)CC1	< 20		100%	Not Active	
O=C(NCCCNC(=O)c1cn(S(=O)(=O)c2ccccc2)c2ccccc12)c1coc2ccccc2c1=O			inactive	Not Active	
O=C(c1coc2ccccc2c1=O)N1CCN(C(=O)c2cn(-c3cccc(C(F)(F)F)c3)c3ccc([N+](=O)[O-])cc23)CC1			inactive	Not Active	

Compound	CC50 at 48 h [7] [µM]	Kd ([9]; read-out: Kd) [µM]	inhibition [10]	Kd [9]	further results
O=C(c1ccccc1)N1CCN(Cc2cn(-c3cccc(C(F)(F)F)c3)c3ccccc23)CC1	> 20	18.6	Active		
Nc1cccc(-n2cc(C(=O)N3CCN(C(=O)C4COc5ccccc5C4=O)CC3)c3cc(N)ccc32)c1 (configuration not stated)			inactive	Not Active	
O=C(c1cn(S(=O)(=O)c2cccc([N+](=O)[O-])c2)c2ccccc12)N1CCN(S(=O)(=O)c2cccc([N+](=O)[O-])c2)CC1	118				selectivity ratio [4]: 18.5
CN(CCN(C)C(=O)c1cn(-c2cccc(C(F)(F)F)c2)c2ccc([N+](=O)[O-])cc12)C(=O)c1coc2ccccc2c1=O	< 20	2.82	100%		
CN(CCN(C)S(=O)(=O)c1cccc([N+](=O)[O-])c1)C(=O)c1cn(S(=O)(=O)c2cccc([N+](=O)[O-])c2)c2ccccc12	18.3				selectivity ratio [4]: 9.5
Cc1cc2occ(CN3CCN(Cc4cn(-c5cccc(C(F)(F)F)c5)c5ccccc45)CC3)c(=O)c2cc1C	< 20	> 10	100%		
O=C(c1cccs1)N1CCN(C(=O)c2c[nH]c3ccc([N+](=O)[O-])cc23)CC1		15.8	inactive		
CN(CCN(C)C(=O)c1cn(S(=O)(=O)c2ccccc2)c2ccccc12)C(=O)c1ccccc1		> 15	inactive		
Cc1cc2occ(C(=O)N3CCN(C(=O)c4cn(-c5cccc(C(F)(F)F)c5)c5ccccc45)CC3)c(=O)c2cc1C	< 20	4.6	100%		
O=C(c1coc2ccccc2c1=O)N1CCN(C(=O)c2cn(-c3cccc([N+](=O)[O-])c3)c3ccccc23)CC1		> 25	inactive		
O=C(NCCNC(=O)c1cn(S(=O)(=O)c2ccccc2)c2ccccc12)c1ccc2ccccc2c1		3.55	inactive		
Cc1cc2occ(CN(C)CCN(C)Cc3cn(S(=O)(=O)c4ccccc4)c4ccccc34)c(=O)c2cc1C		8.71			Activity (BMMC): Toxic
O=C(NCCCNC(=O)c1cn(S(=O)(=O)c2ccccc2)c2ccccc12)c1ccccc1			inactive	Not Active	
Cc1ccc2c(=O)c(CN(C)CCN(C)Cc3cn(S(=O)(=O)c4ccccc4)c4ccccc34)coc2c1	< 20	4.9	100%		
O=C(c1ccc2ccccc2c1)N1CCN(Cc2cn(-c3cccc(C(F)(F)F)c3)c3ccc([N+](=O)[O-])cc23)CC1	> 20		Active	Not Active	
CN(CCN(C)S(=O)(=O)c1ccc(C#N)cc1)C(=O)c1cn(S(=O)(=O)c2cccc([N+](=O)[O-])c2)c2ccccc12	> 500				selectivity ratio [4]: > 250
Cc1ccc2occ(CN3CCN(Cc4cn(-c5cccc(C(F)(F)F)c5)c5ccccc45)CC3)c(=O)c2c1		> 11	inactive		
O=C(c1ccc2ccccc2c1)N1CCN(C(=O)c2cn(-c3cccc(C(F)(F)F)c3)c3ccccc23)CC1			inactive	Not Active	
CN(CCN(C)C(=O)c1cn(S(=O)(=O)c2cccc([N+](=O)[O-])c2)c2ccccc12)C(=O)c1coc2ccccc2c1=O	32.2	4.6	100%		selectivity ratio [4]: 6.3; inhibition [11]: Dose-dependent effect
O=C(c1coc2ccccc2c1=O)N1CCN(C(=O)c2cn(S(=O)(=O)c3ccccc3)c3ccccc23)CC1	> 20	11	Active		
O=C(c1coc2ccccc2c1=O)N1CCN(Cc2cn(-c3cccc(C(F)(F)F)c3)c3ccccc23)CC1	> 20	8.49	Active		
